Assay results taken from publication PMC7724566, “Prospects for Clinical Development of Stat5 Inhibitor IST5-002: High Transcriptomic Specificity in Prostate Cancer and Low Toxicity In Vivo” (Cancers, 2020).

Columns and labels:
Stat5 = Stat5 phosphorylation in CWR22Rv1 cells (IP/immunoblot); assay type: cell-based, human; conditions: 4 days
Protocol: In order to evaluate whether the phosphate group of IST5 is critical for IST5 activity in cell-based assays, we compared the potency of IST5 (Figure 4A) to that of IST5-M (IST5 without the phosphate group) (Figure 4B) in inhibiting phosphorylation of Stat5 in PC and CML cells. CML (K562) cells and PC (CWR22Rv1) cells were cultured for 4 days with increasing concentrations of IST5 and IST5-M (Figure 4C,D). […] Collectively, these finding indicate that IST5 and IST5-M have similar efficacies in inhibiting phosphorylation of Stat5 in both CML and PC cells.
Figure 4 IST5 and the IST5-derivative lacking the phosphate group (IST5-M), both, inhibit Stat5 phosphorylation in CML and prostate cancer cell line with high efficacy. (A), chemical structure of IST5-002 (IST5). (B), chemical structure of IST5-M (IST5 without the phosphate group. (C), IST5 and IST5-M both inhibit Stat5 phosphorylation in CML cells (K562) with high efficacy. K562 cells were treated with IST5 and IST5-M for 4 days at the concentrations indicated. Whole cell lysates (WCL) were immunoblotted with anti-pYStat5 mAb, anti-Stat5 mAb and anti-actin mAb as loading control. (D), IST5 and IST5-M, both, decrease Stat5 phosphorylation in PC cells (CWR22Rv1). CWR22Rv1 cells were treated with increasing concentrations of IST5 and IST5-M for 4 days. Stat5 was immunoprecipitated (IP) followed by immunoblotting (WB) with anti-pYStat5 mAb and anti-Stat5 mAb. Whole cell lysates (WCL) were immunoblotted with anti-actin mAb as loading control.
Cell pellets were solubilized in the lysis buffer (10 mM Tris-HCl (pH 7.6), 5 mM EDTA, 50 mM sodium chloride, 30 mM sodium pyrophosphate, 50 mM sodium fluoride, 1 mM sodium orthovanadate, 1% Triton X-100, 1 mM phenylmethylsulfonyl fluoride, 5 µg/mL aprotinin, 1 µg/mL pepstatin A and 2 µg/mL leupeptin), and protein concentrations of clarified cell lysates were determined by a simplified Bradford method (Bio-Rad, Hercules, CA, USA). The whole cell lysates were immunoprecipitated with polyclonal antibodies (Table S1) followed by incubation with protein A-Sepharose beads (GE Healthcare, Chicago, IL, USA). The cell lysates and immunoprecipitated proteins were separated on 4–12% SDS-PAGE (Life Technologies, Brown Deer, WI, USA) and transferred electrophoretically to polyvinylidene fluoride membrane (Millipore). For immunoblotting, blocking buffer was tris-buffered saline and tween 20 (TBST, 0.15 M NaCl; 0.1% Tween 20; 50 mM Tris, pH 8.0) with 3% bovine serum albumin (BSA). The immunoreaction with the specific antibodies (Table S1) was detected by horseradish peroxidase-conjugated secondary antibodies followed by enhanced chemiluminescence (GE Healthcare).

[1] = tested on: patient-derived clinical PCs; parameters: method as in PMID 26026053, PMID 31548294; conditions: 3D tumor explant cultures; cited from earlier work
PC xenograft tumors = tested on: PC xenograft tumors; parameters: method as in PMID 18316550, PMID 23942095, PMID 26362718, PMID 20966544, PMID 20233708; conditions: cited from earlier work
JAK1 = JAK1 (Homo sapiens, UniProt P23458); assay: Radiometric filtration binding cell-free kinase assay; assay type: biochemical; parameters: purchased Reaction Biology (JAK1/2/3, TYK2); Luceome Biotechnologies KinaseSeeker (others); conditions: percent activity of kinase after exposure to IST5 1 µM
JAK1, sequence (P23458 whole entry, the tested form may be a part): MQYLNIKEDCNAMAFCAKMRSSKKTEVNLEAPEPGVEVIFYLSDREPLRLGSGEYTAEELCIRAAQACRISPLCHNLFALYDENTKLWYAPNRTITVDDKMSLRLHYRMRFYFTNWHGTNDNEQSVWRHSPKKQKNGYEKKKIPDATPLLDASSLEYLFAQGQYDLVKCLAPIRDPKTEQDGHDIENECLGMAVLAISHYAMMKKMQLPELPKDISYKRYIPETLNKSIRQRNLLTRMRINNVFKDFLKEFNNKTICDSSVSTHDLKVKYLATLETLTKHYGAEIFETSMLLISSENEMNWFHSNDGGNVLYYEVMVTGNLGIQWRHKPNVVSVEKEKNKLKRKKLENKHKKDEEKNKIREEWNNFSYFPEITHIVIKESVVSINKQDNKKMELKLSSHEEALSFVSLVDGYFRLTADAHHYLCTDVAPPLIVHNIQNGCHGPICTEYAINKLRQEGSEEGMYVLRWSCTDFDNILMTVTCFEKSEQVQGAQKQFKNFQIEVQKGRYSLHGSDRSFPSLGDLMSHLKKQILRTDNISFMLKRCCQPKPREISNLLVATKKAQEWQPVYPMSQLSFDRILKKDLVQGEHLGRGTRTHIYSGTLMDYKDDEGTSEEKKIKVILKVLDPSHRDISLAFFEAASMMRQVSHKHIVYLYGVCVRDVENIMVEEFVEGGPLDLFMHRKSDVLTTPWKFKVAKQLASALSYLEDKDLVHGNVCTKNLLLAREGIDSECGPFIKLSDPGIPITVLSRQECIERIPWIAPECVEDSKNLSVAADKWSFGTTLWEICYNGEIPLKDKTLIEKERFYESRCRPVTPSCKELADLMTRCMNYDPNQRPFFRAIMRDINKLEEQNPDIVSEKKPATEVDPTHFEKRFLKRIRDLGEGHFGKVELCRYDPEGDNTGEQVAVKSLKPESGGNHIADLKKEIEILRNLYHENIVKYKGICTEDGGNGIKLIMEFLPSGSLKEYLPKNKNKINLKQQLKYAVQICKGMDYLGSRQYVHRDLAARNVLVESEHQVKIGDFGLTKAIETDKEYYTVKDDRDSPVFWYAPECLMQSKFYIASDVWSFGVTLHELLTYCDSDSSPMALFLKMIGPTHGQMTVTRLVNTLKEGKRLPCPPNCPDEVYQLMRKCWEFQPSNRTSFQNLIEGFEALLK
Protocol: (§1) For Jak1, Jak2, Jak3 and Tyk2, a radiometric filtration binding assay was conducted by Reaction Biologicals (Malvern, PA, USA) (Table 1). This radiometric assay is a cell-free assay which is based on conventional filter-binding assays, directly measuring kinase catalytic activity toward a specific substrate. For evaluation of the activity of the other kinases, the Kinase Seeker Technology was utilized (Luceome Biotechnologies, Tucson, AZ, USA), which is a luminescence-based cell-free assay. In this assay, the reassembly of luciferase fragments is mediated by the interaction of a kinase with an active site-dependent probe. The competitive displacement of the probe by an inhibitor is measured by a change in luminescence signal. Percent activity of each kinase after exposure to IST5 (1 µM) is presented.

TYK2 = TYK2 (Homo sapiens, UniProt P29597); assay: as above; assay type: biochemical; parameters: purchased Reaction Biology (JAK1/2/3, TYK2); Luceome Biotechnologies KinaseSeeker (others); conditions: percent activity of kinase after exposure to IST5 1 µM
TYK2, sequence (P29597 whole entry): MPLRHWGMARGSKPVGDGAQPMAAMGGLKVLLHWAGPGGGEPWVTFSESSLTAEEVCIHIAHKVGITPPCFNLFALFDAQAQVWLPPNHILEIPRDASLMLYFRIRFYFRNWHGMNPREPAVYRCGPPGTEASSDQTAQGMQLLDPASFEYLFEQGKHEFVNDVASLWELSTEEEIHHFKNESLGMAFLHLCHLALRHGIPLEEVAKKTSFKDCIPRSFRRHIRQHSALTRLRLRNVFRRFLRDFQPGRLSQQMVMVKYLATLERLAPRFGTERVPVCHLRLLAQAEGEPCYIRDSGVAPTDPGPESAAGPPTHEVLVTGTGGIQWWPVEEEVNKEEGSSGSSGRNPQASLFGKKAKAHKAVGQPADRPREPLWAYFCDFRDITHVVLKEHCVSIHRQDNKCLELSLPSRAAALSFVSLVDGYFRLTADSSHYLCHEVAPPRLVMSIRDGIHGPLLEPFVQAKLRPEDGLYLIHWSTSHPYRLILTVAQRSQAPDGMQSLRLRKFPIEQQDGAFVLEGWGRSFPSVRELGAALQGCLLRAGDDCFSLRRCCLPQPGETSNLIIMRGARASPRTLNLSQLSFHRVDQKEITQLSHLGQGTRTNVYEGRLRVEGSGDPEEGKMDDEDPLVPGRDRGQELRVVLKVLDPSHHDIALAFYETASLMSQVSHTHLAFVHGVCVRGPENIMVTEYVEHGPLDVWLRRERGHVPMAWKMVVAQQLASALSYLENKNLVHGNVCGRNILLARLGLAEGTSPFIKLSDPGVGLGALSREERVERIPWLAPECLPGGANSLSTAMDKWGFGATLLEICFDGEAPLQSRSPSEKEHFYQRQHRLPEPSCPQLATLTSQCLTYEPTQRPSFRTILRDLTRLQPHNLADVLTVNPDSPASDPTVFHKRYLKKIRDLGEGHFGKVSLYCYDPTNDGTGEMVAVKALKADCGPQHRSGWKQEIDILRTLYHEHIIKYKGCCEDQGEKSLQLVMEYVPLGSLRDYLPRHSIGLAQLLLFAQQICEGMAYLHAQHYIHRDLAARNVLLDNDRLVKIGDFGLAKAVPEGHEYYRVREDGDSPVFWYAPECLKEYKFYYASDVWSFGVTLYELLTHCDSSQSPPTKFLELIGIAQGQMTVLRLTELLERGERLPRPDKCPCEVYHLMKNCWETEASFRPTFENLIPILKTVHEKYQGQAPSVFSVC
Protocol: as §1

panel of 54 kinases = assay: Cell-free kinase panels, overall; assay type: biochemical; conditions: 1 µM
Excerpt: Given that IST5 suppresses phosphorylation of Stat5 in PC cells, it is possible that IST5 inhibits the kinase(s) responsible for Stat5 phosphorylation and activation in PC cells. To evaluate if IST5 affects kinase activity in cancer cells, we tested kinase inhibitory activity of IST5 in two custom-tailored panels including 54 relevant kinases (Table 1), including Jak1, Jak2, Jak3, Tyk2, Abl1, Abl2, Lck, Fyn, Src and TrkB/C. In addition, we further tested if IST5 inhibits tyrosine phosphorylation of Jak1, Jak2, Jak3 or Tyk2 using a cell-based assay (Figure 5D), where phosphorylation of the kinase is indicative of enzymatic kinase activity. DU145 and CWR22Rv1 cells were treated with IST5 (6 µM) for 6 h followed by immunoprecipitation of Jak1, Jak2, Jak3 and Tyk2 and immunoblotting with anti-phospho-tyrosine antibody. […]
For Jak1, Jak2, Jak3 and Tyk2, a radiometric filtration binding assay was conducted by Reaction Biologicals (Malvern, PA, USA) (Table 1). […] For evaluation of the activity of the other kinases, the Kinase Seeker Technology was utilized (Luceome Biotechnologies, Tucson, AZ, USA), which is a luminescence-based cell-free assay. […] The competitive displacement of the probe by an inhibitor is measured by a change in luminescence signal. […]

[2] = tested on: enzalutamide-resistant PC; parameters: method as in PMID 31548294; conditions: cited from earlier work

O=P(O)(O)OCC1OC(n2cnc3c(NCc4ccccc4)ncnc32)C(O)C1O (centres unmarked) [IST5]
inhibition of Stat5 phosphorylation (Stat5; 2 µM, CWR22Rv1 cells): 60–75%
IC50 (Stat5; read-out: IC50, inhibition of Stat5 phosphorylation, CWR22Rv1 PC cells): ~1.3 µM
apoptotic death in patient-derived clinical PCs ex vivo [1]: induce apoptotic death
growth of PC xenograft tumors in mice in vivo (PC xenograft tumors): block growth
Activity (JAK1): 96.2%
Activity (TYK2): 100.0%
inhibitory activity against the kinases of Table 1 (panel of 54 kinases): no significant inhibitory activity
enzalutamide-resistant PC growth in mice [2]: blocks enzalutamide-resistant PC growth
